Results: patent US8192962B2, “Processes for detecting toxic substances” (Daikin Industries, Ltd., priority 2001, dated 2012)

Tested on: Stress protein genes
Assay: DNA chip mRNA expression in yeast, stress protein genes (Table 6)
Format: cell-based, Saccharomyces cerevisiae S288C
Procedure, shortened: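 First, S288C yeast grown in YPD at 25° C. are dosed in log phase with one toxicant (growth-inhibiting, not lethal) for 2 h. Next, total RNA is extracted and poly(A) mRNA isolated and reverse-transcribed with Cy3/Cy5-dUTP. Finally, whole-genome chip fluorescence is read relative to unexposed cells.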

Measured: The level of expressed mRNA in the presence of chemical substance/The level of expressed mRNA in the absence of chemical substance

Na2As [(1)]
1.0: yeast gene YBL093C | yeast gene YBR169C | yeast gene YFL020C | yeast gene YGL073W | yeast gene YHR104W | yeast gene YJL159W | yeast gene YJL165C | yeast gene YMR021C
0.8: yeast gene YBR044C | yeast gene YBR126C | yeast gene YDR098C | yeast gene YFL016C | yeast gene YIL033C | yeast gene YJL128C | yeast gene YJR090C | yeast gene YLR109W
1.8: yeast gene YLL026W
1.7: yeast gene YDL025C
12.5: yeast gene YLL060C
1.5: yeast gene YMR173W
18.5: yeast gene YBR072W
3.0: yeast gene YER042W
1.2: yeast gene YAL015C | yeast gene YDR077W | yeast gene YER057C | yeast gene YOL161C | yeast gene YPL059W
1.3: yeast gene YBL075C | yeast gene YDR519W | yeast gene YGR088W | yeast gene YIR038C | yeast gene YNL241C | yeast gene YNR076W | yeast gene YOR208W | yeast gene YPR005C
1.9: yeast gene YBR054W
0.7: yeast gene YEL030W | yeast gene YER103W | yeast gene YHL028W | yeast gene YIL011W | yeast gene YLR006C | yeast gene YLR259C | yeast gene YOR008C | yeast gene YOR010C | yeast gene YOR027W | yeast gene YPL240C
1.4: yeast gene YIR037W | yeast gene YOL064C
2.2: yeast gene YDR513W
4.2: yeast gene YKL161C
0.5: yeast gene YJR045C | yeast gene YKL210W | yeast gene YLL024C
0.6: yeast gene YAL005C | yeast gene YER125W | yeast gene YKL164C | yeast gene YMR186W | yeast gene YPL106C
2.0: yeast gene YCL035C
0.9: yeast gene YDL022W | yeast gene YDR293C | yeast gene YDR436W | yeast gene YGL115W | yeast gene YGL181W | yeast gene YJL158C | yeast gene YKR053C | yeast gene YML007W | yeast gene YML070W | yeast gene YNL064C | yeast gene YOR009W | yeast gene YPL140C | yeast gene YPL194W | yeast gene YPR026W
1.1: yeast gene YCR083W | yeast gene YDR033W | yeast gene YDR155C | yeast gene YEL039C | yeast gene YFR052W | yeast gene YHL046C | yeast gene YHR057C | yeast gene YKL163W | yeast gene YLL039C
1.6: yeast gene YBR067C | yeast gene YDR258C
2.1: yeast gene YHR030C | yeast gene YNL160W
3.4: yeast gene YFL014W
4.8: yeast gene YPL223C
5.2: yeast gene YCR021C
